Laboratory results published in BindingDB's records for patent US11866405 (Astrazeneca, 2024).

Target: T1, Interleukin-1 receptor-associated kinase 4 (Homo sapiens, UniProt Q9NWZ3)
T1 sequence (Q9NWZ3 whole entry): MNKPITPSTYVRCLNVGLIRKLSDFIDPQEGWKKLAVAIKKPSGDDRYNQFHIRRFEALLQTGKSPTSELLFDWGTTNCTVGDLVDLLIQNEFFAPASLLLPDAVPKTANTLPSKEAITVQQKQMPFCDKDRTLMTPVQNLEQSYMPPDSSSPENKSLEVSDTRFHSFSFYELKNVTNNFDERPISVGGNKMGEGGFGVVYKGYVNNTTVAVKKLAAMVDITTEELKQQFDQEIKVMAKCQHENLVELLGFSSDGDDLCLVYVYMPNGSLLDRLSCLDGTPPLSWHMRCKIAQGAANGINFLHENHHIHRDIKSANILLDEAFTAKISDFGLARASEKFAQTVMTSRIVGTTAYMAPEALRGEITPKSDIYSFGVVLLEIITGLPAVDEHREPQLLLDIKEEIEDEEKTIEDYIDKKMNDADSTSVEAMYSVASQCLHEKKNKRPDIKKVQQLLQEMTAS
Experiment: Potency of IRAK4 Inhibitor Compounds in IRAK4 Enzyme Assay
Description: The inhibitory activity of compounds against IRAK4 were determined in an enzymatic assay using mass spectrometry readout. Ten point half-log compound concentration response curves, with a top concentration of 1 μM or 10 μM, were generated from 10 mM stocks of compound solubilized in DMSO using an Echo 655 (Labcyte Inc) and added to 384 well assay plates (Greiner #781280). To the assay plates, 10 μL of human recombinant IRAK4 protein (Life Technologies #PV4002) diluted to a final concentration of 0.2 nM in assay buffer (50 mM Tris-HCl pH 7.4, 10 mM MgCl, 5 mM glutathione, 0.01% BSA, 3 mM ATP) was added. The enzyme was incubated with the compounds at room temperature for 15 minutes before a peptide substrate ([…], Innovagen custom synthesis, 10 mM in DMSO) was added to each well to a final concentration of 10 μM using an Echo 655 (Labcyte Inc). After two hours at room temperature, the reaction was stopped with 90 μL of 0.4% formic acid (Merck #33015). The unphosphorylated and phosphorylated peptide were measured by LC-MS/MS on a Waters TQ-S mass spectrometer. Peaks were integrated using the TargetLynx software and the ratios between phosphorylated and unphosphorylated peptides were calculated.

SMILES	IC50 [nM]
C[C@@]1(O)CCC[C@H](n2cc3cc(C(=O)Nc4cnn5cccnc45)c(OC4CC4)cc3n2)C1 (relative stereo) [US11866405, Example 54]	0.6
COc1cc2nn([C@H]3CCC[C@H](O)[C@@H]3C)cc2cc1C(=O)Nc1cnc2cccnn12 (relative stereo) [US11866405, Example 106]	0.6
COc1cc2nn([C@H]3CC[C@H](N(C)C(=O)[C@@H]4CC[C@H](O)C4)CC3)cc2cc1C(=O)Nc1cnn2cccnc12 (relative stereo) [US11866405, Example 115]	0.8
COc1cc2nn([C@@H]3CC[C@]4(CCC(=O)N4C)C[C@H]3C)cc2cc1C(=O)Nc1cnc2cccnn12 (relative stereo; form 2) [US11866405, Example 122]	0.7
COc1cc2nn([C@H]3CC[C@H](O)C[C@@H]3C)cc2cc1C(=O)Nc1cnn2cccnc12 [US11866405, Example 40]	6.3
C[C@H]1C[C@@H](O)CC[C@@H]1n1cc2cc(C(=O)Nc3cnn4cccnc34)c(OC3CC3)cc2n1 [US11866405, Example 45]	1.4
COc1cc2nn([C@H]3CC[C@H](N(C)C(=O)[C@H](C)O)CC3)cc2cc1C(=O)Nc1cnc2cccnn12 [US11866405, Example 94]	0.3
